The compounds below were run against mTOR protein (Homo sapiens, UniProt P42345) (assay: mTOR enzyme activity assay (PHAS-1 substrate)). Settings: recombinant PHAS-1 as substrate.
Type: biochemical
Text: For mTOR enzyme activity assays, mTOR protein was isolated from HeLa cell cytoplasmic extract by immunoprecipitation, and activity determined essentially as described previously using recombinant PHAS-1 as a substrate (ref. 21).

Compound | IC50
Oc1c(F)cc(-c2csc(-c3ccnc(N4CCOCC4)n3)n2)cc1F [Compound 59a] | < 1500 nM
COc1cc(-c2csc(-c3ccnc(N4CCOCC4)n3)n2)cc(OC)c1O [Compound 27, 2,6-Dimethoxy-4-[2-(2-morpholin-4-yl-pyrimidin-4-yl)-thiazol-4-yl]-phenol] | < 1500 nM
O=C(NNc1nc(N2CCOCC2)nc(N2CCOCC2)n1)c1cc(O)c(O)c(O)c1 [Compound 47a] | < 1500 nM
COc1cc(C=NN(C)c2nc(N3CCOCC3)c3cccnc3n2)cc(OC)c1O [Compound 75b] | < 1500 nM
COc1cc(-c2cncn2-c2ccnc(N3CCOCC3)n2)cc(OC)c1O [Compound 50, 2,6-Dimethoxy-4-[3-(2-morpholin-4-yl-pyrimidin-4-yl)-3H-imidazol-4-yl]-phenol] | < 1500 nM
CN(N=Cc1cc(O)c(O)c(O)c1)c1nc(N2CCOCC2)c2cccnc2n1 [Compound 75a] | < 1500 nM
COc1cc(-c2csc(-c3ccnc(N4CCOCC4)n3)c2)cc(OC)c1O [Compound 69a] | < 1500 nM
COc1cc(-c2csc(-c3ccnc(N4CCOC[C@@H]4C)n3)n2)cc(OC)c1O [Compound 59i] | < 1500 nM
COc1cc(-c2csc(-c3ccnc(N4CCCC(OC)C4)n3)n2)cc(OC)c1O (centres unmarked) [Compound 59j] | < 1500 nM
COc1cc(C=NNc2cc(N3CCOCC3)nc(N3CCCCC3)n2)cc(OC)c1O [Compound 12b] | < 1500 nM
COc1cc2ncnc(NN=Cc3ccc(O)c(O)c3)c2cc1OC [Compound 41a] | < 1500 nM
